Data on two molecules can be found in publication PMC9597875 (Frontiers in Pharmacology, 2022).

One data set addresses T1, CYP2C8 (Homo sapiens, UniProt P10632).
T1 sequence (P10632 1-490): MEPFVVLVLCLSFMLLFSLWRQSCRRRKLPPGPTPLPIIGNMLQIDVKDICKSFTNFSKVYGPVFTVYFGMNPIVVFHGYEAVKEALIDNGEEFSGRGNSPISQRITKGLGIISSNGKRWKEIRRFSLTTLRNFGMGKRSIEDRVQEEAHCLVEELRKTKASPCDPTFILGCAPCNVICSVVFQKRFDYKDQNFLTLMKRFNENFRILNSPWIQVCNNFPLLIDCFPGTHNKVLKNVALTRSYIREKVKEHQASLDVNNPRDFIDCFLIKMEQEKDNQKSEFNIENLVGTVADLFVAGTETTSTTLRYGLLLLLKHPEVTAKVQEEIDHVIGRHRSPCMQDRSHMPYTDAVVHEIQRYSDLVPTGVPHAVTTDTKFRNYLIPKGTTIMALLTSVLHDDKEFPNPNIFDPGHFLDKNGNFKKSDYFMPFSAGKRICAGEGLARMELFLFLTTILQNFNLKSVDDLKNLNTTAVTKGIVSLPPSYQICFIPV
In words: CYP2C8 activity inhibition assay in human liver microsomes (paclitaxel hydroxylation, LC-MS/MS). As to conditions: for IC50: IC50 CYP2C8, HLM, paclitaxel 5 µM. (In general: Microsomes from liver hold many membrane-bound enzymes, among them those of drug oxidation.)

In another data set the target is CYP3A4 (Homo sapiens, UniProt P08684). In words: CYP3A4 activity inhibition assay in human liver microsomes (testosterone 6β-hydroxylation, LC-MS/MS).
Data set [1] has as its target T2, CYP2D6 (Homo sapiens, UniProt P10635). As to conditions: HLM; as compared to quinidine.
Data set [2] addresses T2, CYP2D6. In words: biochemical.

T2 sequence (P10635 whole entry): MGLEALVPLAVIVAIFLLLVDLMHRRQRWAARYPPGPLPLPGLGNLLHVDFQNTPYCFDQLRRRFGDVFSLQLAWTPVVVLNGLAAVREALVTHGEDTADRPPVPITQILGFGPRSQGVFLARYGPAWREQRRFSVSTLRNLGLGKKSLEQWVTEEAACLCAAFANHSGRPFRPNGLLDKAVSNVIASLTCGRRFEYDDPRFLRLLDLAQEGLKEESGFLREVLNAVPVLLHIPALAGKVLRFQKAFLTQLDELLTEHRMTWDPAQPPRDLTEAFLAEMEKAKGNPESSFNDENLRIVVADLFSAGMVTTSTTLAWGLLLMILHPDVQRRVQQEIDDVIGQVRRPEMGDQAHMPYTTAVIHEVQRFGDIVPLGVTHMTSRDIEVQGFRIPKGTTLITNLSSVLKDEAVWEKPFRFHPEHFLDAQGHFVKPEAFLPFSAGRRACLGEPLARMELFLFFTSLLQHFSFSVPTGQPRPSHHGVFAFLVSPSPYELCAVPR
Sequence of CYP3A4 (P08684 whole entry): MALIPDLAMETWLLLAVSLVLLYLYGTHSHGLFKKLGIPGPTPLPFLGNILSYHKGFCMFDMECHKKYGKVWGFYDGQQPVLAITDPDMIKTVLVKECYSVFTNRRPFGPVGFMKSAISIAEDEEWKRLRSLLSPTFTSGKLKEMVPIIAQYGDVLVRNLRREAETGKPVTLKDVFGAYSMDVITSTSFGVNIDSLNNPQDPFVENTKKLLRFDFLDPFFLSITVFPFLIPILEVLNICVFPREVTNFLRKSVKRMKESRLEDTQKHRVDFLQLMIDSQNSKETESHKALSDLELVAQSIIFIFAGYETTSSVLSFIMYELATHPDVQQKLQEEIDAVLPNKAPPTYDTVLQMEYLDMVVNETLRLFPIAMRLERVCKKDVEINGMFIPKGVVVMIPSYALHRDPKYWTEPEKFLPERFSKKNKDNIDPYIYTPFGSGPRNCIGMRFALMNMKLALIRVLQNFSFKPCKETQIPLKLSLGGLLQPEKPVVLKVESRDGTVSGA

The term Ki denotes a dissociation constant, usually derived from enzyme kinetics or from competition with a known ligand. Lower therefore signals a stronger hold on the target. As usually defined, the IC50 is the concentration at which inhibition is half-maximal. Molecule `CN(CCOc1ccc(CC2SC(=O)NC2=O)cc1)c1ccccn1` (centres unmarked) [Rosiglitazone, rosiglitazone] displayed a Ki at CYP2C8 of 1600 nM. Inhibition against CYP2C8 (positive control) was half-maximal at 3280 nM (IC50).
On to `CCC(CC)COC(=O)[C@H](C)N[P@](=O)(OC[C@H]1O[C@@](C#N)(c2ccc3c(N)ncnn23)[C@H](O)[C@@H]1O)Oc1ccccc1` [Remdesivir, remdesivir], for which the values for the IC50 against CYP3A4, on CYP2C8 (remdesivir) and against CYP2D6 [2] were 483 nM, 268 nM and 543 nM, respectively. Also, the Ki at CYP3A4 is 241 nM; on CYP2C8, 134 nM; at CYP2D6 [2] it was 271 nM. Moreover, the “inhibition of CYP3A4 (in words)” value against CYP3A4 (HLM, as compared to ketoconazole) is “moderate/weak inhibition”. Moreover, the “inhibition of CYP2C8 (in words)” value at CYP2C8 (HLM, remdesivir as compared to rosiglitazone) is recorded as “weak inhibition”. In addition, on CYP2D6 [1], the “inhibition of CYP2D6 (in words)” value is “weak inhibition”.
